Article PMC8031368 (ACS chemical biology, 2020)

Assays:
[1] = target: T1, ER (Homo sapiens, UniProt P03372); test: 3H-estradiol displacement assay on MCF7 cells; assay type: binding
T1 sequence (P03372 1-595): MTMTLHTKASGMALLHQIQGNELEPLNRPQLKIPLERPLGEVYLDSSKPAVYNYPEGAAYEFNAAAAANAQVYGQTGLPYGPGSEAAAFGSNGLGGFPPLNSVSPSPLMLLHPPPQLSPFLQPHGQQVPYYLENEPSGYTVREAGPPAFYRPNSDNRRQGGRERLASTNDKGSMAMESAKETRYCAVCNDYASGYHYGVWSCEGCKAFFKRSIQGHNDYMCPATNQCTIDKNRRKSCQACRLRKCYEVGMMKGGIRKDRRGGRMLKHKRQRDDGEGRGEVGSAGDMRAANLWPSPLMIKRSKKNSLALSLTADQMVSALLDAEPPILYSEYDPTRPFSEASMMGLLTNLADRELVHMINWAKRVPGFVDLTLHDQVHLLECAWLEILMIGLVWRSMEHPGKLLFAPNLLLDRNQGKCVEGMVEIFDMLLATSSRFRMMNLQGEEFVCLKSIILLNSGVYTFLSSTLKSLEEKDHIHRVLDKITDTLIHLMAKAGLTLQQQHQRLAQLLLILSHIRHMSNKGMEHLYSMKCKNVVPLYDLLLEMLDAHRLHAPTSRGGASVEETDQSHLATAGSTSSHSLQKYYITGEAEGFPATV

[2] = target: T2, PR (Homo sapiens, UniProt P06401); test: 3H-progesterone displacement assay on MCF7 cells; assay type: binding
T2 sequence (P06401 1-933): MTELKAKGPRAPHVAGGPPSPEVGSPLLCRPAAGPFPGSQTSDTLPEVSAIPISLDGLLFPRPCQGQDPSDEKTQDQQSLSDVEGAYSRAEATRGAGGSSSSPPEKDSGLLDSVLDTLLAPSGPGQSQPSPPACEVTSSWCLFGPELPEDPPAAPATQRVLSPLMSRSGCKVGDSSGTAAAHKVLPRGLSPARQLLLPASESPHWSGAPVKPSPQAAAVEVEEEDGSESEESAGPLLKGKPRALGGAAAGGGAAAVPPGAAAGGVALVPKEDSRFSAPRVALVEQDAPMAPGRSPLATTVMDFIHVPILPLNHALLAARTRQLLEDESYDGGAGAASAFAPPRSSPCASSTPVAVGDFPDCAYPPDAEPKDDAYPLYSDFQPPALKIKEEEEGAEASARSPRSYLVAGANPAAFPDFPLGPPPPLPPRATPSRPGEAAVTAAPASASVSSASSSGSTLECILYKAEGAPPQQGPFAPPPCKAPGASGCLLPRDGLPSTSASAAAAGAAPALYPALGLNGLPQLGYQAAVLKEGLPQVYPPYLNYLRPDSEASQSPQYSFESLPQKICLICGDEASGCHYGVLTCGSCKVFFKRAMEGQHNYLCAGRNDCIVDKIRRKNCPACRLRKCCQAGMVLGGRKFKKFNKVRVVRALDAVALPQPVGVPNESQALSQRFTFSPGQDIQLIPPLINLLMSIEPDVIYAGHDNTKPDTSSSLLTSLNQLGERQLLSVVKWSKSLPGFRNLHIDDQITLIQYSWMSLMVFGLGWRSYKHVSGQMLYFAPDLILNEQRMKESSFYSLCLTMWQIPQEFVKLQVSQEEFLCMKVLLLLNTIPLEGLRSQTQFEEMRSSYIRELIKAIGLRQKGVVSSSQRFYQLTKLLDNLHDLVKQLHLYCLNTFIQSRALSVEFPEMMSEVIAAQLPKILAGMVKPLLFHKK

[3] = target: T3, AR (Homo sapiens, UniProt P10275); test: 3H-dihydrotestosterone displacement assay on LNCaP-AR cells; assay type: binding
T3 sequence (P10275 1-920): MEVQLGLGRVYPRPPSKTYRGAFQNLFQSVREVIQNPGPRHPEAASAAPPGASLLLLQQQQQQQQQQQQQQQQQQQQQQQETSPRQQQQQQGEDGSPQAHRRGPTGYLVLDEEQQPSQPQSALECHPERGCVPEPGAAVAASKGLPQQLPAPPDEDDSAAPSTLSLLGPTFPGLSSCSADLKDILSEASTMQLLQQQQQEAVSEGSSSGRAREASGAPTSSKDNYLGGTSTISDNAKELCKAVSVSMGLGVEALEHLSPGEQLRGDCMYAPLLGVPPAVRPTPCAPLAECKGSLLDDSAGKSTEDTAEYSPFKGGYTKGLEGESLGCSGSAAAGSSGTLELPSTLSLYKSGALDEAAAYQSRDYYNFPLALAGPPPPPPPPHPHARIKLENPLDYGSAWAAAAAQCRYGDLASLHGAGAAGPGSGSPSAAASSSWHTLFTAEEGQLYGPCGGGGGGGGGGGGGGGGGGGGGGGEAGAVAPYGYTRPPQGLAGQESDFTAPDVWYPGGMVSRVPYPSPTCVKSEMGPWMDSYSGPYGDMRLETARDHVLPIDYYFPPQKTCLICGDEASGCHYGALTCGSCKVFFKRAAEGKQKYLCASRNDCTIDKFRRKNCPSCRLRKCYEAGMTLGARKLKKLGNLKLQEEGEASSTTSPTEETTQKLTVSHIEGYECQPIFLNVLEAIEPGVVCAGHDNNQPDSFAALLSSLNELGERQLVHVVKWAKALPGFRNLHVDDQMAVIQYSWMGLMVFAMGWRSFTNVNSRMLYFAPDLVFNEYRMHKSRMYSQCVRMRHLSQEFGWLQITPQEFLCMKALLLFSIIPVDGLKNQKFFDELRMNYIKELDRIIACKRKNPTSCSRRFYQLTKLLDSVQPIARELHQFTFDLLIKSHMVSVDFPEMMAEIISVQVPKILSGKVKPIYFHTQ

[4] = target: T4, GR (Homo sapiens, UniProt P04150); test: 3H-dexamethasone displacement assay on DU145 cells; assay type: binding
T4 sequence (P04150 1-777): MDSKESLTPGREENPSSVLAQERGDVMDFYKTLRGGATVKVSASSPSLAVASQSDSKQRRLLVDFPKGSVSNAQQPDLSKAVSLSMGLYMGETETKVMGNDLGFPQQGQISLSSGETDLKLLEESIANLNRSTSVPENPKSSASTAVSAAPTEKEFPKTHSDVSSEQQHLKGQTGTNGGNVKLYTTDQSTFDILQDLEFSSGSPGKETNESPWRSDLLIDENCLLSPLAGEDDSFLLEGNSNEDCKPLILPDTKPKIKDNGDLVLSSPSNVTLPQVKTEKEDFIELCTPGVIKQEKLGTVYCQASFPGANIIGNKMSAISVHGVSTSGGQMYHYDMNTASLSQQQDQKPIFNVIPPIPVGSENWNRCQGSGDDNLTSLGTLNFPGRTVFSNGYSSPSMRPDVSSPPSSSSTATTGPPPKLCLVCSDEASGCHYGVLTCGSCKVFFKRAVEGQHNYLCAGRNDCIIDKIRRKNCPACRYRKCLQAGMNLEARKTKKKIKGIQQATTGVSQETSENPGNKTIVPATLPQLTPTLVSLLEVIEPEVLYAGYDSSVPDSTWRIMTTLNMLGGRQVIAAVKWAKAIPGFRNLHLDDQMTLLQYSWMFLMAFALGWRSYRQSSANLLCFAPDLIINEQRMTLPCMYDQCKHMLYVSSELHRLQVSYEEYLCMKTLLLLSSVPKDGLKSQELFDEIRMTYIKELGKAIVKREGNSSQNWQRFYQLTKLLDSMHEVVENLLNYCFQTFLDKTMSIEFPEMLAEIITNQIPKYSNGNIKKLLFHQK

[5] = tested on: GR target genes (GILZ, FKBP5, Per1) in DU145 cells; test: Real time PCR of GR target genes in DU145 cells; assay type: cell-based, human

Q: Which Ki [1] does the source give for COc1cccc2c1-c1ccc3c(c1C(Cc1ccc(F)cc1)O2)C(C)=CC(C)(C)N3 (centres unmarked) [YJH08, 5-(4-fluorobenzyl)-10-methoxy-2,2,4-trimethyl-2,5-dihydro-1H-chromeno[3,4-f]quinoline] here?
A: Its Ki is 19000 nM.

Q: What about the Ki [2] of the same compound?
A: The Ki was 555 nM.

Q: What about the Ki [3] of the same compound?
A: Its Ki is 220 nM.

Q: And the Ki ([4]; Ki GR, 3H-dexamethasone displacement, DU145 cells, one site Ki fit)?
A: Its Ki is 0.401 nM.

Q: What about the Ki ([4]; Ki for GR) of the same compound?
A: Its Ki is about 0.4 nM.

Q: What about the “levels of GR target genes GILZ, FKBP5” value ([5]; DU145 cells, 10 μM, 6 h exposure, real time PCR) of the same compound?
A: The value was “elevated”.

Q: And the “induction of Per1” value ([5]; DU145 cells, YJH08 10 μM, 6 h exposure)?
A: Its value is “induced by dexamethasone but not YJH08”.

Q: And the “GR functional activity (overall assessment)” value ([5]; from target gene induction in DU145 cells)?
A: The value was “mild GR agonist”.
